Results taken from PubChem BioAssay (NCI).
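Where inhibition never reached the appropriate level, the endpoint shown equals the highest concentration tested. Otherwise, values were interpolated linearly from a five-concentration, 48-hour dose response in 96-well plates. GI50 is the concentration that inhibits growth by half. TGI is the concentration that stops growth completely.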

Columns and labels:
Assay in all cases: NCI-60 cell line screen, 48 h
786-0 renal = system: 786-0 renal
CCRF-CEM leukemia = system: CCRF-CEM leukemia
HOP-62 NSCLC = system: HOP-62 NSCLC
M14 melanoma = system: M14 melanoma
NCI-H460 lung = system: NCI-H460 lung
OVCAR-3 ovarian = system: OVCAR-3 ovarian
OVCAR-5 ovarian = system: OVCAR-5 ovarian
OVCAR-8 ovarian = system: OVCAR-8 ovarian
SK-MEL-28 melanoma = system: SK-MEL-28 melanoma
SK-MEL-5 melanoma = system: SK-MEL-5 melanoma

SMILES | TGI (786-0 renal) [µM] | TGI (CCRF-CEM leukemia) [µM] | TGI (HOP-62 NSCLC) [µM] | TGI (M14 melanoma) [µM] | TGI (NCI-H460 lung) [µM] | TGI (OVCAR-3 ovarian) [µM] | TGI (OVCAR-5 ovarian) [µM] | TGI (OVCAR-8 ovarian) [µM] | TGI (SK-MEL-28 melanoma) [µM] | TGI (SK-MEL-5 melanoma) [µM] | GI50 (786-0 renal) [µM] | GI50 (CCRF-CEM leukemia) [µM] | GI50 (HOP-62 NSCLC) [µM] | GI50 (M14 melanoma) [µM] | GI50 (NCI-H460 lung) [µM] | GI50 (OVCAR-3 ovarian) [µM] | GI50 (OVCAR-5 ovarian) [µM] | GI50 (OVCAR-8 ovarian) [µM] | GI50 (SK-MEL-28 melanoma) [µM] | GI50 (SK-MEL-5 melanoma) [µM]
COc1ccc(-c2cc(=O)c3c(O)cccc3o2)c(OC)c1OC | > 100 | > 100 | > 100 | > 100 | > 100 | > 100 | > 100 | > 100 | > 100 | > 100 |  |  |  |  |  |  |  |  |  | 
O=C1c2c(Br)sc(Br)c2[C@@H](NC(=O)C(F)(F)F)C1Br (stereo not given in full) | 5.13 | 5.64 | 28.2 | 6.23 | 31 | 9.99 | 24.4 | 7.73 | 8.51 | 7.88 |  |  |  |  |  |  |  |  |  | 
COc1ccc2c(c1)C(=O)c1c-2c(OCCN(C)C)nc2ccccc12 | 16.5 | 10.4 | 12.7 | 15 | 4.33 | 7.01 | 18.5 | 11.9 | 15.4 | 16.6 | 4.06 | 0.825 | 2.29 | 3.85 | 1.15 | 2.48 | 4.53 | 2.54 | 4.53 | 4.6
Oc1c(-c2cc(C(F)(F)F)[nH]n2)cc(Cl)c(OCc2ccc(Cl)cc2)c1-c1ccc(Cl)c(C(F)(F)F)c1 | 2.14 | 4.77 | 3.04 | 2.44 | 2.57 | 5.5 | 7.91 | 6.45 | 2.13 | 0.941 | 0.647 | 0.192 | 0.766 | 0.851 | 0.361 | 0.315 | 2.01 | 0.192 | 0.392 | 0.265
c1ccc2c(c1)CCc1c-2n[nH]c1-c1[nH]nc2c1CCc1ccccc1-2 | > 100 | > 100 | > 100 | > 100 | > 100 | > 100 | > 100 | > 100 | > 100 | > 100 |  |  |  |  |  |  |  |  |  | 
NC1=NC(=O)C(CC(=O)Nc2ccc(Cl)cc2Cl)S1 (stereo not given) | > 100 | > 100 | > 100 | > 100 | > 100 | > 100 | > 100 | > 100 | > 100 | > 100 |  |  |  |  |  |  |  |  |  | 
Cc1cc(=O)c2c(O)cc3c(c2o1)CC=C(COC1OC(COC2OC(CO)C(O)C(O)C2O)C(O)C(O)C1O)CO3 (stereo not given) | > 100 | > 100 | > 100 | > 100 | > 100 | > 100 | > 100 | > 100 | > 100 | > 100 |  |  |  |  |  |  |  |  |  | 
N[C@H](COCc1ccccc1)c1ccccc1 | > 80.9 | 56.6 | > 74.5 | 66 | 61.9 | > 76.2 | 87.2 | > 100 | > 100 | 44.8 |  |  |  |  |  |  |  |  |  | 
O=C(NNS(=O)(=O)c1ccc(Cl)cc1Cl)c1cccnc1Nc1ccc(Cl)cc1 | 49.4 | > 100 | 37.7 | 38.7 | > 100 | > 100 | 78.2 | 74.9 | > 100 | 29.7 | 19.6 | 6.62 | 16.6 | 19 | 35.7 | 20.6 | 26.2 | 26.7 | 35.4 | 14.2
COc1ccc2c(-c3ccnc(Nc4cccc(OC(F)(F)F)c4)n3)cnn2n1 | 5.48 | > 25 | > 15.9 | > 12.9 | 4.79 | 1.68 | > 21.1 | 10.5 | > 25 | 9.56 | 1.72 | 1.09 | 1.11 | 1.26 | 1.06 | 0.661 | 3.53 | 1.84 | 3.47 | 1.1
O=C(Cc1nc2ccccc2o1)C(=O)Nc1cccc(C(F)(F)F)c1 | > 100 | > 100 | > 100 | > 100 | > 100 | > 100 | > 100 | > 100 | > 100 | > 100 |  |  |  |  |  |  |  |  |  | 
Nc1n[nH]c2ccc([C@@H]3Nc4cc5c(cc4[C@H]4C6CCC(C6)[C@@H]34)C(=O)NC5)cc12 (stereo not given in full) | > 100 | > 100 | > 100 | > 43.1 | > 100 | 1.19 | > 100 | > 100 | > 100 | 0.612 | 0.557 | 0.323 | 0.513 | 0.287 | 0.424 | 0.305 | 1.06 | 0.445 | 4.17 | 0.232
